Where a name gives a salt, the structure may show the parent alone.
Experiments:
castrated mice = test: Determination for sexual function of castrated mice; format: in vivo, Kunming strain mouse; details: 15 mg/kg^−1, ig, 60 min after feeding the drug
Excerpt: Pharmacodynamic study: determination for sexual function of castrated mice 60 Kunming strain mouse (feeding 60 mouse with 18 g to 22 g weight in the same period) are randomly divided into 6 groups, each 10 mouse per group, wherein, 5 groups of mouse are implemented with bilateral orchidectomy under ether anesthesia state to have castration treatment, and the rest one group of mouse are only implemented with surgical separation, without removing the testicles, which can be taken as a sham operation control group. Each group of mouse are fed in cage, and are tested after 3 d. The sham operation control group and the model control group are fed with 0.5% CMC, […] crystal form O, the positive control group is fed with 6 mg·kg^−1 of Sildenafil; all are ig delivery modes, and the dose volumes are all 10 ml·kg^−1. Putting the single male mice in the cage 60 min after feeding the drug, and adding one female mice in each cage, recording the time that the male mice firstly catches the female mice since the female mice is put in the cage (namely, the capture incubation period), and recording the back-climbing times of the male mice within 30 min.

[1] = Influencing factor test (high temperature, high humidity, illumination); format: physicochemical
[2] = High-temperature test (first line; 60+/−2° C.), 0 month
[3] = High-temperature test (first line; 60+/−2° C.), 0.5 month
[4] = High-temperature test (first line; 60+/−2° C.), 1 month
[5] = High-temperature test (second line so named), 0 month
[6] = High-temperature test (second line so named), 0.5 month
[7] = High-temperature test (second line so named), 1 month
[8] = Illumination test (4500 lx+/−500 lx), 0 month
[9] = Illumination test (4500 lx+/−500 lx), 0.5 month
[10] = Illumination test (4500 lx+/−500 lx), 1 month
[11] = high light (4500 lx+/−500 lx), high temperature (60+/−2° C.), high humidity (RH 92.5%), 0 to 1 month

CCCc1nn(C)c2c(=O)[nH]c(-c3cc(S(=O)(=O)N4C[C@@H](C)N[C@@H](C)C4)ccc3OCC)nc12 [Aildenafil citrate crystal form O]
capture incubation period shortened (castrated mice): 201%
capture times increased (castrated mice; within 30 min): 4.4 times
Appearance [1, 2]: White
Contents (HPLC area normalization method) [1, 2]: 99.96%
Related articles [1, 2]: 0.04%
Appearance [1, 3]: White
Contents (HPLC area normalization method) [1, 3]: 99.96%
Infrared absorption spectrum [1, 3]: Unchanged
PXRD [1, 3]: Unchanged
Related articles [1, 3]: 0.04%
Appearance [1, 4]: White
Contents (HPLC area normalization method) [1, 4]: 99.95%
Infrared absorption spectrum [1, 4]: Unchanged
PXRD [1, 4]: Unchanged
Related articles [1, 4]: 0.04%
Appearance [1, 5]: White
Contents (HPLC area normalization method) [1, 5]: 99.96%
Related articles [1, 5]: 0.04%
Appearance [1, 6]: White
Contents (HPLC area normalization method) [1, 6]: 99.95%
Infrared absorption spectrum [1, 6]: Unchanged
PXRD [1, 6]: Unchanged
Related articles [1, 6]: 0.04%
Appearance [1, 7]: White
Contents (HPLC area normalization method) [1, 7]: 99.96%
Infrared absorption spectrum [1, 7]: Unchanged
PXRD [1, 7]: Unchanged
Related articles [1, 7]: 0.05%
Appearance [1, 8]: White
Contents (HPLC area normalization method) [1, 8]: 99.96%
Related articles [1, 8]: 0.04%
Appearance [1, 9]: White
Contents (HPLC area normalization method) [1, 9]: 99.96%
Infrared absorption spectrum [1, 9]: Unchanged
PXRD [1, 9]: Unchanged
Related articles [1, 9]: 0.04%
Appearance [1, 10]: White
Contents (HPLC area normalization method) [1, 10]: 99.96%
Infrared absorption spectrum [1, 10]: Unchanged
PXRD [1, 10]: Unchanged
Related articles [1, 10]: 0.04%
chemical stability (related articles and contents) [1, 11]: excellent chemical stability
crystal form stability (appearance, PXRD, infrared absorption spectrum) [1, 11]: stable

Reference: US9663439B2, “Aildenafil citrate crystal form O, preparation method and use thereof” (priority 2010, dated 2017)
